Among the data in paper PMC6544337, “Development of chimeric and bifunctional antagonists for CLR/RAMP receptors” (PLoS ONE, 2019) are IC50 and Emax values, retold here.

In one experiment the target is CLR/RAMP1 (Homo sapiens, UniProt O60894+Q16602). The experiment in a line: CLR/RAMP1 cAMP assay, antagonist mode (CGRP challenge at EC80). In kind it is cell-based. Conditions: for Emax: maximum inhibition of CGRP-mediated signaling, in % of a positive control, read-out: CLR/RAMP1 Max Activity % of control (antagonistic).
In the next experiment the target is CLR/RAMP2 (Homo sapiens, UniProt O60895+Q16602). Description: CLR/RAMP2 PathHunter β-arrestin assay, antagonist mode (ADM challenge at EC80). Conditions: for IC50: inhibition of ADM-mediated signaling, CHO-K1 cells, pre-incubation with antagonist, then agonist at EC80, β-arrestin read-out; for Emax: maximum inhibition of ADM-mediated signaling, in % of a positive control, read-out: CLR/RAMP2 Max Activity % of control (antagonistic). In kind it is cell-based. Here is the method: The bioactivity of synthetic analogs was studied using cells that stably express CLR/RAMP1 (1321N1 cells) or CLR/RAMP2 (CHO-K1 cells) receptors using CLR/RAMP1 cAMP and CLR/RAMP2 arrestin assays from DiscoveRx (Fremont, Ca). In receptor-activation assays, the dose-dependent stimulatory response was studied in duplicate, at 10 different concentrations.
The CLR/RAMP2 signaling was assayed using the CLR/RAMP2 PathHunter β-Arrestin assay. In this assay, the GPCR was fused in frame with a small enzyme donor fragment ProLink (PK) and co-expressed in cells stably expressing a fusion protein of β-arrestin and an N-terminal deletion mutant of β-galactosidase (i.e., enzyme acceptor or EA). Activation of the CLR/RAMP2 stimulates binding of β-arrestin to the PK-tagged receptor and leads to an increase in enzyme activity that can be measured using chemiluminescent PathHunter Detection Reagents. PathHunter cell lines were seeded in white walled, 384-well microplates and incubated at 37C prior to testing. For agonist determination, intermediate dilution of sample stocks was performed to generate 5X sample in assay buffer, and 5 μl of 5X sample was added to cells and incubated at 37C for 90 minutes. Vehicle concentration was 1%. For antagonistic activity determination, cells were pre-incubated with antagonist followed by agonist challenge at the EC80 concentration.

Structures are written as SMILES.

Sequence of CLR/RAMP1 (Q16602 23-461): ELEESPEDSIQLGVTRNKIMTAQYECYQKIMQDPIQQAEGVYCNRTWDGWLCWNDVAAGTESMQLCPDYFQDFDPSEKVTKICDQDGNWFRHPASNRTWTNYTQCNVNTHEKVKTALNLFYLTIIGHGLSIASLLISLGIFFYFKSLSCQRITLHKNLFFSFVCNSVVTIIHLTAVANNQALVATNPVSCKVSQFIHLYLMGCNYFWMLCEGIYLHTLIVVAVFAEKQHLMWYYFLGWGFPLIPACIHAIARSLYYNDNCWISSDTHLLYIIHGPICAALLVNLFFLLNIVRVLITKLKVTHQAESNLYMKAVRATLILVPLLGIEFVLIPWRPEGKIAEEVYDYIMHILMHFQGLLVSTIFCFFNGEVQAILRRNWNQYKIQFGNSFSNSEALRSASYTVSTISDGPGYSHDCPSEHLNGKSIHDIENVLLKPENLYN
Sequence of CLR/RAMP1 (O60894 27-148): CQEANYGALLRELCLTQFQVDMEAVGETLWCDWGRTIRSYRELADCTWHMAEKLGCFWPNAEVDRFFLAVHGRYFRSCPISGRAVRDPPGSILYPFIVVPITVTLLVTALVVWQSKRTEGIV
Sequence of CLR/RAMP2 (Q16602 23-461): as the sequence (Q16602 23-461) above
Sequence of CLR/RAMP2 (O60895 43-175): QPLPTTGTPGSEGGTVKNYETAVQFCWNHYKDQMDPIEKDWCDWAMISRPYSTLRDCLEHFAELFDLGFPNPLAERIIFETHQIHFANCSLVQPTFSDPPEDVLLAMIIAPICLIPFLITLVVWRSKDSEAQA

As for `CC[C@H](C)[C@H](NC(=O)[C@H](CCCCN)NC(=O)[C@H](CO)NC(=O)[C@H](CCCNC(=N)N)NC(=O)[C@@H]1CCCN1C(=O)[C@H](C)NC(=O)[C@@H](NC(=O)[C@H](CC(N)=O)NC(=O)[C@H](CC(=O)O)NC(=O)[C@H](CCCCN)NC(=O)[C@H](CC(=O)O)NC(=O)[C@H](CCCCN)NC(=O)[C@H](CC(=O)O)NC(=O)[C@@H](NC(=O)[C@H](Cc1ccccc1)NC(=O)[C@H](CCCNC(=N)N)NC(=O)[C@H](CO)NC(=O)[C@H](CC(C)C)NC(=O)[C@H](CC(C)C)NC(=O)CNC(=O)[C@H](C)NC(=O)[C@H](CC(C)C)NC(=O)[C@H](CCCNC(=N)N)NC(=O)[C@H](Cc1c[nH]cn1)NC(=O)[C@@H](NC(=O)[C@@H](N)C(C)C)[C@@H](C)O)[C@@H](C)O)C(C)C)C(=O)N[C@@H](CO)C(=O)N1CCC[C@H]1C(=O)N[C@@H](CCC(N)=O)C(=O)NCC(=O)N[C@@H](Cc1ccc(O)cc1)C(N)=O` [Antagonist 1–5], the IC50 is 1880 nM on CLR/RAMP1 and 117 nM on CLR/RAMP2. Besides, the figures for the Emax on CLR/RAMP1 and on CLR/RAMP2 were 99% and 100%, respectively.

In the case of `CC[C@H](C)[C@H](NC(=O)[C@H](CCCCN)NC(=O)[C@H](CO)NC(=O)[C@H](CCCNC(=N)N)NC(=O)[C@@H]1CCCN1C(=O)[C@H](C)NC(=O)[C@@H](NC(=O)[C@H](CC(N)=O)NC(=O)[C@H](CC(=O)O)NC(=O)[C@H](CCCCN)NC(=O)[C@H](CC(=O)O)NC(=O)[C@@H]1CCCN1C(=O)CNC(=O)[C@H](CCSC)NC(=O)[C@H](CC(C)C)NC(=O)[C@H](CCC(N)=O)NC(=O)[C@H](Cc1c[nH]c2ccccc12)NC(=O)[C@H](CC(C)C)NC(=O)[C@H](CCCNC(=N)N)NC(=O)[C@H](Cc1c[nH]cn1)NC(=O)[C@H](C)NC(=O)[C@H](CC(C)C)NC(=O)[C@H](CCCCN)NC(=O)[C@H](CCC(N)=O)NC(=O)[C@@H](NC(=O)[C@@H](N)[C@@H](C)O)C(C)C)C(C)C)C(=O)N[C@@H](CO)C(=O)N1CCC[C@H]1C(=O)N[C@@H](CCC(N)=O)C(=O)NCC(=O)N[C@@H](Cc1ccc(O)cc1)C(N)=O` [Antagonist 1–6], on CLR/RAMP1, the IC50 came to 152 nM and the Emax is 101%. In addition, at CLR/RAMP2, the IC50 came out at 7.3 nM and the Emax stood at 101%.

Take `NCCCC[C@H](NC(=O)[C@@H](Cc1cc(Br)c(O)c(Br)c1)NC(=O)N1CCC(N2Cc3ccccc3NC2=O)CC1)C(=O)N1CCN(c2ccncc2)CC1` [BIBN4096, reference compound]: on CLR/RAMP2, the Emax was 0%.

Regarding `CCCCCCCCCCCCCCCC(=O)N[C@H](C(=O)N[C@H](C(=O)N[C@@H](CCC(N)=O)C(=O)N[C@@H](CCCCN)C(=O)N[C@@H](CC(C)C)C(=O)N[C@@H](C)C(=O)N[C@@H](Cc1c[nH]cn1)C(=O)N[C@@H](CCC(N)=O)C(=O)N[C@H](C(=O)N[C@@H](Cc1ccc(O)cc1)C(=O)N[C@@H](CCC(N)=O)C(=O)N[C@@H](Cc1ccccc1)C(=O)N[C@H](C(=O)N[C@@H](CC(=O)O)C(=O)N[C@@H](CCCCN)C(=O)N[C@@H](CC(=O)O)C(=O)N[C@@H](CCCCN)C(=O)N[C@@H](CC(=O)O)C(=O)N[C@@H](CC(N)=O)C(=O)N[C@@H](CO)C(=O)N[C@@H](C)C(=O)N1CCC[C@H]1C(=O)N[C@H](C(=O)N[C@@H](CC(=O)O)C(=O)N1CCC[C@H]1C(=O)N[C@@H](CO)C(=O)N[C@@H](CO)C(=O)N1CCC[C@H]1C(=O)N[C@@H](Cc1c[nH]cn1)C(=O)N[C@@H](CO)C(=O)N[C@@H](Cc1ccc(O)cc1)C(N)=O)C(C)C)[C@@H](C)O)[C@@H](C)CC)C(C)C)[C@@H](C)O` [Antagonist 1–1], at CLR/RAMP2, the Emax came out at 100%.
